# Measurements as given in patent US20260217701A1, “SELECTIVE BET INHIBITORS AND USES THEREOF” (Tay Therapeutics Limited, priority 2022, published 2026).
# Where “and” joins values, the source holds several entries; their conditions need not be identical. Equal values may be shown once.
# Assay: CIA study: animal body weight
# Conditions: for Average animal body weight / Average animal body weight percent change: CIA; for Animal body weight percent change (%): individual animals
compound,measurement,setting,value
"Cn1cc(-c2ccccc2)c(-c2cn(C)c(=O)c3[nH]c(-c4cnn(C(F)(F)F)c4)cc23)cc1=O [Compound A, 6-methyl-4-(1-methyl-2-oxo-5-phenyl-1,2-dihydropyridin-4-yl)-2-(1-(trifluoromethyl)-1H-pyrazol-4-yl)-1,6-dihydro-7H-pyrrolo[2,3-c]pyridin-7-one]",Animal body weight,"CIA + Compound A 1 mg/kg, Day 8, 1 mg/kg",172 g and 157 g and 170 g and 161 g and 171 g and 165 g
same,Animal body weight,"CIA + Compound A 1 mg/kg, Day 9, 1 mg/kg",180 g and 156 g and 175 g and 162 g and 173 g and 170 g and 169 g
same,Animal body weight,"CIA + Compound A 1 mg/kg, Day 10, 1 mg/kg",178 g and 155 g and 166 g and 170 g and 176 g
same,Animal body weight,"CIA + Compound A 1 mg/kg, Day 11, 1 mg/kg",180 g and 157 g and 178 g and 162 g and 170 g and 175 g and 167 g
same,Animal body weight,"CIA + Compound A 1 mg/kg, Day 12, 1 mg/kg",182 g and 158 g and 176 g and 162 g and 174 g and 177 g and 165 g
same,Animal body weight,"CIA + Compound A 1 mg/kg, Day 13, 1 mg/kg",180 g and 158 g and 179 g and 160 g and 174 g and 172 g and 165 g
same,Animal body weight,"CIA + Compound A 1 mg/kg, Day 14, 1 mg/kg",178 g and 159 g and 179 g and 155 g and 175 g and 170 g and 168 g
same,Animal body weight,"CIA + Compound A 3 mg/kg, Day 8, 3 mg/kg",160 g and 174 g and 173 g and 169 g and 163 g and 165 g and 167 g and 157 g
same,Animal body weight,"CIA + Compound A 3 mg/kg, Day 9, 3 mg/kg",162 g and 171 g and 178 g and 169 g and 160 g and 163 g and 170 g
same,Animal body weight,"CIA + Compound A 3 mg/kg, Day 10, 3 mg/kg",162 g and 172 g and 177 g and 170 g and 168 g and 167 g
same,Animal body weight,"CIA + Compound A 3 mg/kg, Day 11, 3 mg/kg",160 g and 172 g and 178 g and 169 g and 165 g
same,Animal body weight,"CIA + Compound A 3 mg/kg, Day 12, 3 mg/kg",158 g and 176 g and 170 g and 167 g and 169 g and 172 g and 165 g
same,Animal body weight,"CIA + Compound A 3 mg/kg, Day 13, 3 mg/kg",162 g and 175 g and 166 g and 173 g and 157 g and 168 g and 171 g
same,Animal body weight,"CIA + Compound A 3 mg/kg, Day 14, 3 mg/kg",163 g and 177 g and 170 g and 175 g and 156 g and 167 g and 158 g
same,Animal body weight,"CIA + Compound A 10 mg/kg, Day 8, 10 mg/kg",162 g
same,Animal body weight,"CIA + Compound A 10 mg/kg, Day 9, 10 mg/kg",164 g
same,Animal body weight,"CIA + Compound A 10 mg/kg, Day 10, 10 mg/kg",165 g
same,Animal body weight,"CIA + Compound A 10 mg/kg, Day 11, 10 mg/kg",164 g
same,Animal body weight,"CIA + Compound A 10 mg/kg, Day 12, 10 mg/kg",163 g
same,Animal body weight,"CIA + Compound A 10 mg/kg, Day 13, 10 mg/kg",163 g
same,Animal body weight,"CIA + Compound A 10 mg/kg, Day 14, 10 mg/kg",164 g
same,Average animal body weight,"Day 0, 1 mg/kg",163
same,Average animal body weight percent change,"Day 0, 1 mg/kg",0.00%
same,Average animal body weight,"Day 0, 3 mg/kg",166
same,Average animal body weight percent change,"Day 0, 3 mg/kg",0.00%
same,Average animal body weight,"Day 0, 10 mg/kg",162
same,Average animal body weight percent change,"Day 0, 10 mg/kg",0.00%
same,Average animal body weight,"Day 1, 1 mg/kg",166
same,Average animal body weight percent change,"Day 1, 1 mg/kg",1.55%
same,Average animal body weight,"Day 1, 3 mg/kg",165
same,Average animal body weight percent change,"Day 1, 3 mg/kg",−0.19%
same,Average animal body weight,"Day 1, 10 mg/kg",164
same,Average animal body weight percent change,"Day 1, 10 mg/kg",1.12%
same,Average animal body weight,"Day 2, 1 mg/kg",163
same,Average animal body weight percent change,"Day 2, 1 mg/kg",−0.07%
same,Average animal body weight,"Day 2, 3 mg/kg",165
same,Average animal body weight percent change,"Day 2, 3 mg/kg",−0.57%
same,Average animal body weight,"Day 2, 10 mg/kg",163
same,Average animal body weight percent change,"Day 2, 10 mg/kg",0.71%
same,Average animal body weight,"Day 3, 1 mg/kg",165
same,Average animal body weight percent change,"Day 3, 1 mg/kg",0.96%
same,Average animal body weight,"Day 3, 3 mg/kg",163
same,Average animal body weight percent change,"Day 3, 3 mg/kg",−1.45%
same,Average animal body weight,"Day 3, 10 mg/kg",163
same,Average animal body weight percent change,"Day 3, 10 mg/kg",0.63%
same,Average animal body weight,"Day 4, 1 mg/kg",165
same,Average animal body weight percent change,"Day 4, 1 mg/kg",1.26%
same,Average animal body weight,"Day 4, 3 mg/kg",165
same,Average animal body weight percent change,"Day 4, 3 mg/kg",−0.35%
same,Average animal body weight,"Day 4, 10 mg/kg",163
same,Average animal body weight percent change,"Day 4, 10 mg/kg",0.72%
same,Average animal body weight,"Day 5, 1 mg/kg",169
same,Average animal body weight percent change,"Day 5, 1 mg/kg",3.76%
same,Average animal body weight,"Day 5, 3 mg/kg",167
same,Average animal body weight percent change,"Day 5, 3 mg/kg",0.70%
same,Average animal body weight,"Day 5, 10 mg/kg",166
same,Average animal body weight percent change,"Day 5, 10 mg/kg",2.60%
same,Average animal body weight,"Day 6, 1 mg/kg",170
same,Average animal body weight percent change,"Day 6, 1 mg/kg",4.33%
same,Average animal body weight,"Day 6, 3 mg/kg",166
same,Average animal body weight percent change,"Day 6, 3 mg/kg",0.43%
same,Average animal body weight,"Day 6, 10 mg/kg",166
same,Average animal body weight percent change,"Day 6, 10 mg/kg",2.04%
same,Average animal body weight,"Day 7, 1 mg/kg",170
same,Average animal body weight percent change,"Day 7, 1 mg/kg",3.94%
same,Average animal body weight,"Day 7, 3 mg/kg",164
same,Average animal body weight percent change,"Day 7, 3 mg/kg",−0.93%
same,Average animal body weight,"Day 7, 10 mg/kg",164
same,Average animal body weight percent change,"Day 7, 10 mg/kg",0.89%
same,Average animal body weight,"Day 8, 1 mg/kg",167
same,Average animal body weight percent change,"Day 8, 1 mg/kg",2.26%
same,Average animal body weight,"Day 8, 3 mg/kg",166
same,Average animal body weight percent change,"Day 8, 3 mg/kg",0.36%
same,Average animal body weight,"Day 8, 10 mg/kg",162
same,Average animal body weight percent change,"Day 8, 10 mg/kg",−0.31%
same,Animal body weight percent change (%),"Day 8, Group 5 (CIA + Compound A 1 mg/kg), 1 mg/kg",4.24% and −4.27% and 4.94% and 5.92% and 1.78% and 2.40% and 1.23%
same,Animal body weight percent change (%),"Day 8, Group 6 (CIA + Compound A 3 mg/kg), 3 mg/kg",−4.76% and 1.75% and −1.14% and 1.20% and −2.40% and 1.23% and 6.37% and 0.64%
same,Average animal body weight,"Day 9, 1 mg/kg",169
same,Average animal body weight percent change,"Day 9, 1 mg/kg",3.79%
same,Average animal body weight,"Day 9, 3 mg/kg",167
same,Average animal body weight percent change,"Day 9, 3 mg/kg",0.75%
same,Average animal body weight,"Day 9, 10 mg/kg",163
same,Average animal body weight percent change,"Day 9, 10 mg/kg",0.36%
